Data published in patent US8957064B2, “Fused pyrimidines” (Bayer Intellectual Property GmbH, priority 2009, dated 2015).

Columns and labels:
[1] = molecular target: His-tagged human recombinant kinase full-length Akt1 (Homo sapiens (Human), UniProt P31749); experiment: Akt1 kinase assay (Akt1 TR-FRET assay, Biological Assay 1.0); assay type: biochemical; settings: 10 μM ATP, 1 μM biotinylated peptide substrate, 60 min at 22° C.
Description: Biological Assay 1.0: Akt1 Kinase Assay
Akt1 inhibitory activity of compounds of the present invention may be quantified employing the Akt1 TR-FRET assay as described in the following paragraphs. His-tagged human recombinant kinase full-length Akt1 expressed in insect cells was purchased form Invitrogen (part number PV 3599). As substrate for the kinase reaction the biotinylated peptide biotin-Ahx-KKLNRTLSFAEPG (C-terminus in amide form) was used which can be purchased e.g. from the company Biosynthan GmbH (Berlin-Buch, Germany).
(§1) For the assay 50 nl of a 100 fold concentrated solution of the test compound in DMSO was pipetted into a black low volume 384 well microtiter plate (Greiner Bio-One, Frickenhausen, Germany), 2 μl of a solution of Akt1 in assay buffer [50 mM TRIS/HCl pH 7.5, 5 mM MgCl2, 1 mM dithiothreitol, 0.02% (v/v) Triton X-100 (Sigma)] were added and the mixture was incubated for 15 min at 22° C. to allow prebinding of the test compounds to the enzyme before the start of the kinase reaction. Then the kinase reaction was started by the addition of 3 μl of a solution of adenosine-tri-phosphate (ATP, 16.7 μM=>final conc. in the 5 μl assay volume is 10 μM) and substrate (1.67 μM=>final conc. in the 5 μl assay volume is 1 μM) in assay buffer and the resulting mixture was incubated for a reaction time of 60 min at 22° C. The concentration of Akt1 in the assay was adjusted depending of the activity of the enzyme lot and was chosen appropriate to have the assay in the linear range, typical enzyme concentrations were in the range of about 0.05 ng/μl (final conc. in the 5 μl assay volume).
(§2) The reaction was stopped by the addition of 5 μl of a solution of HTRF detection reagents (200 nM streptavidine-XL665 [Cisbio] and 1.5 nM anti-phosho-Serine antibody [Millipore, cat. #35-001] and 0.75 nM LANCE Eu-W 1024 labeled anti-mouse IgG antibody [Perkin Elmer]) in an aqueous EDTA-solution (100 mM EDTA, 0.1% (w/v) bovine serum albumin in 50 mM HEPES/NaOH pH 7.5).
(§3) The resulting mixture was incubated 1 h at 22° C. to allow the binding of the biotinylated phosphorylated peptide to the streptavidine-XL665 and the antibodies. Subsequently the amount of phosphorylated substrate was evaluated by measurement of the resonance energy transfer from the anti-mouse-IgG-Eu-Chelate to the streptavidine-XL665. Therefore, the fluorescence emissions at 620 nm and 665 nm after excitation at 350 nm was measured in a HTRF reader, e.g. a Rubystar (BMG Labtechnologies, Offenburg, Germany) or a Viewlux (Perkin-Elmer). The ratio of the emissions at 665 nm and at […] was taken as the measure for the amount of phosphorylated substrate. The data were normalised (enzyme reaction without inhibitor=0% inhibition, all other assay components but no enzyme=100% inhibition).

[2] = molecular target: His-tagged human recombinant kinase full-length Akt2 activated by PDK1 (Homo sapiens (Human), UniProt P31751); experiment: Akt2 kinase assay (Akt2 TR-FRET assay, Biological Assay 2.0); assay type: biochemical; settings: 10 μM ATP, 1 μM biotinylated peptide substrate, 60 min at 22° C.
Sequence of His-tagged human recombinant kinase full-length Akt2 activated by PDK1 (P31751 whole entry): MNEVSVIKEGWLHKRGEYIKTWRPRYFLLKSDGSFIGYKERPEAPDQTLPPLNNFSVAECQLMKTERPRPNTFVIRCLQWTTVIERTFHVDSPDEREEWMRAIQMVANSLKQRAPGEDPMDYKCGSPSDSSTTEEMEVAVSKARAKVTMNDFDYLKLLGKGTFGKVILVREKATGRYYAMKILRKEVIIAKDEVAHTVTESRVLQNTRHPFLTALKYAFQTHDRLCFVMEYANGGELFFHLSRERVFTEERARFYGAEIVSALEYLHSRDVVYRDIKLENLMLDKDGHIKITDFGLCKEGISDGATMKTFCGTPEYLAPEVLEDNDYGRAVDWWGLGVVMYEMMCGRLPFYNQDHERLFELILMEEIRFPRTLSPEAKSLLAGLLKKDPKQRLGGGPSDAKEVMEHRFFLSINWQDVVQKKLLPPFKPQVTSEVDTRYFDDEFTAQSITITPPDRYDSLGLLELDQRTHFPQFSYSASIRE
Description: Biological Assay 2.0: Akt2 Kinase Assay
Akt2 inhibitory activity of compounds of the present invention was quantified employing the Akt2 TR-FRET assay as described in the following paragraphs.
His-tagged human recombinant kinase full-length Akt2 expressed in insect cells and activated by PDK1 was purchased form Invitrogen (part number PV 3975). As substrate for the kinase reaction the biotinylated peptide biotin-Ahx-KKLNRTLSFAEPG (C-terminus in amide form) was used which can be purchased e.g. from the company Biosynthan GmbH (Berlin-Buch, Germany).
as §1, with “Akt2” for “Akt1”, “0.2” for “0.05”
as §2
as §3, with “TR-FRET” for “HTRF”

Sequence of His-tagged human recombinant kinase full-length Akt1 (P31749 whole entry): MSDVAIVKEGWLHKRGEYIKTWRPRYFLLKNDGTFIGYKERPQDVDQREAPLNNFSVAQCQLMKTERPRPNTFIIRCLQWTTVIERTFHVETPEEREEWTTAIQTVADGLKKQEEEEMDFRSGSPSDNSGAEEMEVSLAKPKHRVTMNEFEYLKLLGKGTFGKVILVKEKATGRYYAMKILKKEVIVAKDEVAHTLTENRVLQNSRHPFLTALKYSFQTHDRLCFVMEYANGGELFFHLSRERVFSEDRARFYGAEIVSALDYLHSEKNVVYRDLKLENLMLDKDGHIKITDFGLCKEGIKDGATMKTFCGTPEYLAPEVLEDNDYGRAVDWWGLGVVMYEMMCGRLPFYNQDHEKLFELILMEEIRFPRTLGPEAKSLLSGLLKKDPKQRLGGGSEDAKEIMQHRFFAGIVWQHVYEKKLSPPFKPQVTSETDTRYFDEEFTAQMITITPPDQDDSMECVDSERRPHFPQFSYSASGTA

Structure (SMILES) | IC50 [1] | IC50 [2]
Cc1nc2nc(-c3ccc(CN4CCC(c5n[nH]c(-c6ccccn6)n5)C4)cc3)c(-c3ccccc3)cn2n1 (racemic) [Example 24.0, (±)-2-methyl-6-phenyl-5-{4-[3-(5-pyridin-2-yl-1H-[1,2,4]triazol-3-yl)-pyrrolidin-1-ylmethyl]-phenyl}-[1,2,4]triazolo[1,5-a]pyrimidine] | 0.044 µM | 0.435 µM
Cc1nc2nc(-c3ccc(CN4CC(c5nnc(-c6ccccn6)[nH]5)C4)cc3)c(-c3ccccc3)cn2n1 [Example 2.0, 2-methyl-6-phenyl-5-(4-{[3-(5-pyridin-2-yl-1,2,4-triazol-3-yl)azetidin-1-yl]methyl}phenyl)[1,2,4]triazolo[1,5-a]pyrimidine] | 0.023 µM | 0.065 µM
Fc1cnc2nc(-c3ccc(CN4CC(c5nnc(-c6ccccn6)[nH]5)C4)cc3)c(-c3ccccc3)cn12 [Example 4.0, 3-fluoro-6-phenyl-7-(4-{[3-(5-pyridin-2-yl-1,2,4-triazol-3-yl)azetidin-1-yl]methyl}phenyl)imidazo[1,2-a]pyrimidine] | < 0.05 µM | < 0.05 µM
Clc1cnc2nc(-c3ccc(CN4CC(c5nnc(-c6ccccn6)[nH]5)C4)cc3)c(-c3ccccc3)cn12 [Example 5.0, 3-Chloro-6-phenyl-7-(4-{[3-(5-pyridin-2-yl-1,2,4-triazol-3-yl)azetidin-1-yl]methyl}phenyl)imidazo[1,2-a]pyrimidine] | 0.006 µM | 0.011 µM
Nc1ncnc2c1cnn2C1CCN(Cc2ccc(-c3nc4ccnn4cc3-c3ccccc3)cc2)CC1 [Example 19.0, 1-{1-[4-(6-phenyl-pyrazolo[1,5-a]pyrimidin-5-yl)-benzyl]-piperidin-4-yl}-1H-pyrazolo[3,4-d]pyrimidin-4-ylamine] | 0.025 µM | 0.332 µM
Cc1nc2nc(-c3ccc(CN4CCC(c5nc6ccc(C#N)cc6[nH]5)CC4)cc3)c(-c3ccccc3)cn2n1 [Example 20.0, 2-{1-[4-(2-methyl-6-phenyl-[1,2,4]triazolo[1,5-a]pyrimidin-5-yl)benzyl]-piperidin-4-yl}-3H-benzimidazole-5-carbonitrile] | 0.525 µM | 1.01 µM
Cc1nc2nc(-c3ccc(CN4CCC(c5nc6ccc(C(F)(F)F)cc6[nH]5)CC4)cc3)c(-c3ccccc3)cn2n1 [Example 21.0, 2-methyl-6-phenyl-5-{4-[4-(6-trifluoromethyl-1H-benzimidazol-2-yl)-piperidin-1-ylmethyl]-phenyl}-[1,2,4]-triazolo[1,5-a]pyrimidine] | 1.45 µM | 2.5 µM
CNc1nc2nc(-c3ccc(CN4CC(c5n[nH]c(-c6ccccn6)n5)C4)cc3)c(-c3ccccc3)cn2n1 [Example 43.0, methyl-(6-phenyl-5-{4-[3-(5-pyridin-2-yl-1H-[1,2,4]triazol-3-yl)azetidin-1-ylmethyl]-phenyl}-[1,2,4]triazolo[1,5-a]pyrimidin-2-yl)-amine] | 0.063 µM | –

Further lines, results first:

IC50 [1] | IC50 [2] | Structure (SMILES)
< 0.05 µM | < 0.5 µM | c1ccc(-c2cn3ccnc3nc2-c2ccc(CN3CC(c4nnc(-c5ccccn5)[nH]4)C3)cc2)cc1 [Example 1.0, 6-phenyl-7-(4-{[3-(5-pyridin-2-yl-1,2,4-triazol-3-yl)azetidin-1-yl]methyl}phenyl)imidazo[1,2-a]pyrimidine]
0.157 µM | 1.22 µM | c1ccc(-c2cn3ccnc3nc2-c2ccc(CN3CCC(c4nc5ccncc5[nH]4)CC3)cc2)cc1 [Example 6.0, 2-{1-[4-(6-phenyl-imidazo[1,2-a]pyrimidin-7-yl)-benzyl]-piperidin-4-yl}-3H-imidazo[4,5-c]pyridine]
0.056 µM | 0.607 µM | c1ccc(-c2cn3ccnc3nc2-c2ccc(CN3CCC(c4nc5cccnc5[nH]4)CC3)cc2)cc1 [Example 7.0, 2-{1-[4-(6-phenyl-imidazo[1,2-a]pyrimidin-7-yl)-benzyl]-piperidin-4-yl}-3H-imidazo[4,5-b]pyridine]
0.083 µM | 0.426 µM | N#Cc1ccc2nc(C3CCN(Cc4ccc(-c5nc6nccn6cc5-c5ccccc5)cc4)CC3)[nH]c2c1 [Example 9.0, 2-{1-[4-(6-Phenyl-imidazo[1,2-a]pyrimidin-7-yl)-benzyl]-piperidin-4-yl}-3H-benzimidazole-5-carbonitrile]
0.004 µM | 0.009 µM | c1ccc(-c2cn3ccnc3nc2-c2ccc(CN3CCC(c4cnc5ccccc5n4)CC3)cc2)cc1 [Example 10.0, 2-{1-[4-(6-phenyl-imidazo[1,2-a]pyrimidin-7-yl)-benzyl]-piperidine-4-yl}-quinoxaline]
0.039 µM | 0.316 µM | N#Cc1ccc2nc(C3CCN(Cc4ccc(-c5nc6ccnn6cc5-c5ccccc5)cc4)CC3)[nH]c2c1 [Example 12.0, 2-{1-[4-(6-phenyl-pyrazolo[1,5-a]pyrimidin-5-yl)-benzyl]-piperidin-4-yl}-3H-benzimidazol-5-carbonitrile]
0.112 µM | 0.228 µM | Cc1nc2nc(-c3ccc(CN4CCC(c5nc6ccc(F)cc6[nH]5)CC4)cc3)c(-c3ccccc3)cn2n1 [Example 13.0, 5-{4-[4-(6-fluoro-1H-benzoimidazol-2-yl)-piperidin-1-ylmethyl]-phenyl}-2-methyl-6-phenyl-[1,2,4]triazolo[1,5-a]pyrimidine]
3 µM | 5.84 µM | Cc1nc2nc(-c3ccc(CN4CCC(c5nc6ccncc6[nH]5)CC4)cc3)c(-c3ccccc3)cn2n1 [Example 14.0, 5-{4-[4-(3H-imidazo[4,5-c]pyridin-2-yl)-piperidin-1-ylmethyl]-phenyl}-2-methyl-6-phenyl-[1,2,4]triazolo[1,5-a]pyrimidine]
0.042 µM | 1.08 µM | c1ccc(-c2cn3nccc3nc2-c2ccc(CN3CCC(c4nc5cccnc5[nH]4)CC3)cc2)cc1 [Example 16.0, 2-{1-[4-(6-phenyl-pyrazolo[1,5-a]pyrimidin-5-yl)-benzyl]-piperidin-4-yl}-3H-imidazo[4,5-b]pyridine]
0.338 µM | > 20 µM | FC(F)(F)c1ccc2nc(C3CCN(Cc4ccc(-c5nc6ccnn6cc5-c5ccccc5)cc4)CC3)[nH]c2c1 [Example 17.0, 6-phenyl-5-{4-[4-(6-trifluoromethyl-1H-benzimidazol-2-yl)piperidin-1-ylmethyl]-phenyl}-pyrazolo[1,5-a]pyrimidine]
0.042 µM | 1.09 µM | Fc1ccc2nc(C3CCN(Cc4ccc(-c5nc6ccnn6cc5-c5ccccc5)cc4)CC3)[nH]c2c1 [Example 18.0, 5-{4-[4-(6-fluoro-1H-benzimidazol-2-yl)-piperidin-1-ylmethyl]-phenyl}-6-phenyl-pyrazolo[1,5-a]pyrimidine]
